According to PubChem BioAssay (NCI):
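Each compound was tested at five concentrations against cells in 96-well plates for 48 hours. Abbreviation: GI50, concentration required for 50% inhibition of growth. TGI: total growth inhibition.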

Experiments:
Experiment in all cases: DTP human tumour cell line panel, 48 h
[1] = test system: 786-0 renal
[2] = test system: A498 renal
[3] = test system: A549 NSCLC
[4] = test system: ACHN renal
[5] = test system: BT-549 breast
[6] = test system: CAKI-1 renal
[7] = test system: COLO 205 colon
[8] = test system: DU-145 prostate
[9] = test system: HCC-2998 colon
[10] = test system: HCT-116 colon
[11] = test system: HCT-15 colon
[12] = test system: HL-60(TB) leukemia
[13] = test system: HOP-62 NSCLC
[14] = test system: HOP-92 NSCLC
[15] = test system: HS 578T breast
[16] = test system: HT29 colon
[17] = test system: IGROV1 ovarian
[18] = test system: K-562 leukemia
[19] = test system: KM12 colon
[20] = test system: LOX IMVI melanoma
[21] = test system: M14 melanoma
[22] = test system: MALME-3M melanoma
[23] = test system: MCF7 breast
[24] = test system: MDA-MB-231 breast
[25] = test system: MDA-MB-435
[26] = test system: MOLT-4 leukemia
[27] = test system: NCI-H226 lung
[28] = test system: NCI-H23 lung
[29] = test system: NCI-H460 lung
[30] = test system: NCI-H522 lung
[31] = test system: NCI/ADR-RES ovarian
[32] = test system: OVCAR-3 ovarian
[33] = test system: OVCAR-4 ovarian
[34] = test system: OVCAR-5 ovarian
[35] = test system: OVCAR-8 ovarian
[36] = test system: PC-3 prostate
[37] = test system: RPMI-8226 leukemia
[38] = test system: RXF 393 renal
[39] = test system: SF-268 CNS
[40] = test system: SF-295 CNS
[41] = test system: SF-539 CNS
[42] = test system: SK-MEL-2 melanoma
[43] = test system: SK-MEL-28 melanoma
[44] = test system: SK-MEL-5 melanoma
[45] = test system: SK-OV-3 ovarian
[46] = test system: SN12C renal
[47] = test system: SNB-19 CNS
[48] = test system: SNB-75 CNS
[49] = test system: SR leukemia
[50] = test system: SW-620 colon
[51] = test system: T-47D breast
[52] = test system: TK-10 renal
[53] = test system: U251 CNS
[54] = test system: UACC-257 melanoma
[55] = test system: UACC-62 melanoma
[56] = test system: UO-31 renal

`COc1cc(-c2nn(-c3cccc(NC(=O)Nc4cccc(C(F)(F)F)c4)c3)cc2-c2ccncc2)ccc1Cl` gave a GI50 [1] of 1.12 µM, a TGI [1] of 3.17 µM and a GI50 [2] of 0.609 µM. For the same compound, the TGI [2] was 3.03 µM, the GI50 [3] was 0.723 µM and the TGI [3] was 14.5 µM. It also gave a GI50 [4] of 0.371 µM, a TGI [4] of 13.6 µM and a GI50 [5] of 1.23 µM. The TGI [5] was 4.03 µM, the GI50 [6] was 0.952 µM and the TGI [6] was 3.1 µM. For the same compound, the GI50 [7] was 0.588 µM, the TGI [7] was 1.43 µM and the GI50 [8] was 1.36 µM. The TGI [8] was 22.8 µM, the GI50 [9] was 1.38 µM and the TGI [9] was 4.71 µM. It also gave a GI50 [10] of 0.608 µM, a TGI [10] of 6.09 µM and a GI50 [11] of 0.957 µM. It also gave a TGI [11] of 10.8 µM, a GI50 [12] of 0.756 µM and a TGI [12] of 10.1 µM. For the same compound, the GI50 [13] was 0.923 µM, the TGI [13] was 2.88 µM and the GI50 [14] was 0.251 µM. The TGI [14] was 0.921 µM, the GI50 [15] was 1.36 µM and the TGI [15] was 16.6 µM. The GI50 [16] was 0.775 µM, the TGI [16] was 2.09 µM and the GI50 [17] was 0.92 µM. For the same compound, the TGI [17] was 3.24 µM, the GI50 [18] was 0.386 µM and the TGI [18] was 12.1 µM. It also gave a GI50 [19] of 0.422 µM, a TGI [19] of 2.02 µM and a GI50 [20] of 0.789 µM. The TGI [20] was 1.65 µM, the GI50 [21] was 0.759 µM and the TGI [21] was 2.16 µM. The GI50 [22] was 0.845 µM, the TGI [22] was 2.18 µM and the GI50 [23] was 0.609 µM. For the same compound, the TGI [23] was 4.7 µM, the GI50 [24] was 0.813 µM and the TGI [24] was 2.23 µM. It also gave a GI50 [25] of 0.794 µM, a TGI [25] of 1.98 µM and a GI50 [26] of 0.936 µM. For the same compound, the TGI [26] was 3.48 µM, the GI50 [27] was 1.21 µM and the TGI [27] was 14.8 µM. The GI50 [28] was 0.769 µM, the TGI [28] was 3.02 µM and the GI50 [29] was 0.478 µM. The TGI [29] was 2.28 µM, the GI50 [30] was 0.451 µM and the TGI [30] was 1.87 µM. The GI50 [31] was 0.696 µM, the TGI [31] was 3.58 µM and the GI50 [32] was 0.343 µM. The TGI [32] was 1.59 µM, the GI50 [33] was 0.996 µM and the TGI [33] was 13.8 µM. The GI50 [34] was 1.52 µM, the TGI [34] was 8.41 µM and the GI50 [35] was 0.739 µM. The TGI [35] was 2.7 µM, the GI50 [36] was 0.244 µM and the TGI [36] was 1.55 µM. The GI50 [37] was 0.241 µM, the TGI [37] was 1.83 µM and the GI50 [38] was 0.798 µM. The TGI [38] was 1.95 µM, the GI50 [39] was 1.28 µM and the TGI [39] was 5.01 µM. The GI50 [40] was 0.229 µM, the TGI [40] was 0.926 µM and the GI50 [41] was 0.958 µM. The TGI [41] was 2.56 µM, the GI50 [42] was 0.935 µM and the TGI [42] was 1.94 µM. For the same compound, the GI50 [43] was 1.06 µM, the TGI [43] was 3.91 µM and the GI50 [44] was 0.622 µM. The TGI [44] was 1.27 µM, the GI50 [45] was 1.7 µM and the TGI [45] was 15.4 µM. It also gave a GI50 [46] of 0.817 µM, a TGI [46] of 10.5 µM and a GI50 [47] of 0.999 µM. It also gave a TGI [47] of 6.26 µM, a GI50 [48] of 1.13 µM and a TGI [48] of 4.1 µM. It also gave a GI50 [49] of 0.858 µM, a TGI [49] of 2.62 µM and a GI50 [50] of 0.767 µM. It also gave a TGI [50] of 9.43 µM, a GI50 [51] of 0.638 µM and a TGI [51] of 11.4 µM. For the same compound, the GI50 [52] was 1.06 µM, the TGI [52] was 9.26 µM and the GI50 [53] was 0.467 µM. For the same compound, the TGI [53] was 1.23 µM, the GI50 [54] was 0.746 µM and the TGI [54] was 2.09 µM. The GI50 [55] was 0.627 µM, the TGI [55] was 1.48 µM and the GI50 [56] was 0.747 µM. For the same compound, the TGI [56] was 3.04 µM.
